Data on six molecules can be found in patent US20080220471A1, “Vectors and Methods Using Same” (Genentech, Inc., priority 2005, published 2008).

One data set concerns tumor. As to conditions: Teicher et al. 2002; cited from earlier work.
In data set [1] the test system is A375M-luc/shRNA-BRAF cells. Nature of the data set: A375M-luc systemic (metastatic) tumor model, survival and bioluminescence. In kind it is in vivo, scid-beige mice. As to conditions: 1 mg/ml Dox in drinking water (Dox-mediated BRAF knockdown); i.v. 4×10^5 A375M-luc/shRNA-BRAF cells. As for the experimental part:
To evaluate the efficacy of TASK121 knockdown in this model, cohorts of mice with similarly increasing tumor burden were divided into treatment groups. Scid-beige mice were injected intraperitoneally with […] 200 mg/kg D-luciferin (Biotium, Hayward, Calif.) and anesthetized using isoflurane. During image acquisition in a light-tight box, the animal was maintained on isoflurane via nose cone, and body temperature was maintained using a warming pad. Bioluminescence images were acquired using a cooled intensified charge-coupled device camera in an in vivo imaging system (Xenogen, Alameda, Calif.). Image acquisition times were about 1 minute. Images were processed by co-registering a reference image with a thresholded bioluminescence data image.
For metastatic tumor models, female scid-beige mice were injected intravenously with 50 μL PBS containing 4×10^5 A375M-luc shRNA cell clones. Tumor progression was monitored by weekly bioluminescence imaging for luciferase and mice were monitored daily for survival. At least 9 mice were used for each cohort. […] This is a promising strategy to inhibit certain metastatic tumors.

Another data set deals with LOX-IMVI tumors. Nature of the data set: LOX-IMVI inducible shRNA subcutaneous xenograft. It is filed as in vivo. As to conditions: for tumor growth: 2 mg/ml Dox plus 5% sucrose in drinking water, start at 100-150 mm^3. The procedure: (§1) Six- to 8-week-old female athymic nu/nu mice or scid-beige mice were purchased from Charles River Laboratories. To assay for BRAF role in subcutaneous tumor models, mice were injected in the right flank with either 3×10^6 human LOX-IMVI or 1×10^7 human A375 TASK121-shRNA containing cell clones in 200 μL phosphate-buffered saline (PBS). When tumors reached a mean volume of 100-150 mm^3 the mice with similarly sized tumors were grouped into treatment cohorts. Mice received 5% sucrose only or 5% sucrose plus 1-2 mg/ml doxycycline for control and knockdown cohorts, respectively. All water bottles were changed 3 times per week. Tumors were measured with calipers and mice weighed twice per week. Mice whose tumors reach 2000 mm^3 were euthanized. At the end of the dosing study, or as indicated, appropriate tumor samples were taken. Each treatment group consisted of 7-10 mice and results are presented as mean tumor volume ±standard deviation (FIGS. 10C-E).

For another data set, the system named is BRAF. The data set can be described thus: BRAF knockdown in melanoma cell clones (immunoblot densitometry, quantitative PCR). It is filed as cell-based, human. The conditions noted are these: melanoma cell clones expressing inducible BRAF shRNA. The source says:
FIG. 10: Inducible knockdown of BRAF expression prevents melanoma tumor growth. (A). Schematic representation of a retroviral vector for tetracycline/doxycycline-inducible synthesis of shRNA. The Tet-repressor is constitutively expressed from the β-actin promoter and H1 RNA polymerase III promoter-driven transcription is thereby repressed in the absence of Dox by binding of the TetR protein to the Tet-responsive element sequence located immediately downstream of the TATA box. Addition of Dox results in dissociation of the TetR protein and derepression of the shRNA transcriptional unit. TATA, TATA box; TRE, Tet-responsive element; TetR, Tet-repressor protein; IRES, internal ribosomal entry site; PURO, puromycin resistance gene; LTR, long terminal repeat. B. Experimental validation of BRAF knockdown in melanoma cell lines. […] Lysates were then analyzed by immunoblotting. […]
We generated stable cells that expressed the inducible shRNA retroviral vector shown in FIG. 10A (based on pHUSH-GW). […] In the uninduced state, cells expressing the inducible hairpins were not altered in their baseline growth properties and no discernable background expression could be detected (data not shown). […] BRAF knockdown was reversible and time-dependent, with the maximal mRNA depletion detected 2 days post induction and the corresponding protein depletion occurring at day 3.

Data set [2] concerns pHUSH shGL3 clone B11 tumors. Nature of the data set: Tumor volume of pHUSH shGL3 clone B11 tumors at each Dox concentration. The conditions noted are these: luciferase-targeting shRNA. In kind it is in vivo, mice. The procedure: FIG. 6: (A) The relative change in mean bioluminescence at each time point and treatment condition (n=5 mice per doxycycline dose). […] In addition to the luciferase expression analysis, tumor volume measurements were recorded for the pHUSH shGL3 clone B11 at each concentration of doxycycline.
To determine whether Dox or shRNA expression influenced tumor growth in vivo, tumor volume measurements were recorded for the tumors at each concentration of Dox.

The test system of a further data set is TetR protein. The data set can be described thus: Western analysis of TetR protein expression in transiently transfected 293T cells. In kind it is cell-based. As to conditions: transient transfection, compared to wildtype TetR coding sequence. The procedure:
To confirm that codon optimization of the TetR coding region increased expression of the TetR protein, Western analysis was performed. Briefly, plasmids containing the retroviral backbone comprising either wild type TetR (WT) or the codon optimized TetR (OPT) were transiently transfected into 293T cells using lipofectin (commercially available from GIBCO-BRL, Gaithersburg, Md.). Cell lysates were prepared by addition of 50 mM HEPES pH 7.4, 100 mM NaCl, 50 mM NaF, 5 mM B-glycerophosphate, 2 mM EGTA, 1 mM Na vanadate, 1% TX100 to a cell pellet, resolved on a 4-12% acrylamide gel and transferred to a PVDF membrane. Membranes were sequentially probed with Mouse α-TetR (1:5000; MolBiTec) and Rabbit α-Tubulin-HRP (1:5000, Santa Cruz Biotech, Santa Cruz, Calif.). […] “Ev” signifies negative control using retroviral vector lacking a shRNA cassette.

Data set [3] deals with pGL3-mu-p53 (murine p53 sequences). Nature of the data set: Luciferase-based transient co-transfection comparing shRNA and miRNA vectors against p53. The conditions noted are these: p53-1 sequence, higher transfection ratios. In kind it is cell-based. An excerpt: FIG. 15: Luciferase-based transient co-transfection experiments compared shRNA and miRNA inducible expression vector performance. A. Comparison of H1-shRNA and CMV-miR vectors corresponding to murine p53 sequences transfected at 7.5:1, 5:1 and 2.5:1 shRNA:pGL3-mu-p53. B. The removal of the EmGFP leader rendered miR-p53-1 non-functional at a co-transfection ratio of 10:1.
In order to compare the efficacy of shRNA versus miRNA design, two effective miRNAs directed against p53 were converted to H1-shRNAs by identifying the 21-22 nt active siRNA within the miRNA scaffold and then by converting these active siRNAs back to N19 shRNAs. In addition, we examined the effect of having a linker sequence upstream of the miRNA. The following oligonucleotides were used in this study: […]

A further data set has as its system A375 tumors. Nature of the data set: A375 inducible shRNA subcutaneous xenograft. It is filed as in vivo, athymic nu/nu mice. As to conditions: 2 mg/ml Dox in drinking water. As for the experimental part: as §1

Entries after “also recorded” stand apart in the source; their conditions may differ.

Take `Cl.Cn1cc(C2=C(c3cn(C4CCN(Cc5ccccn5)CC4)c4ccccc34)C(=O)NC2=O)c2ccccc21` [317615-HCL]: the anti-tumor effect result in the data set with tumor is “anti-tumor effect”.

On to `C[C@H]1c2cccc(O)c2C(=O)C2=C(O)[C@]3(O)C(=O)C(C(N)=O)=C(O)[C@@H](N(C)C)[C@@H]3[C@@H](O)[C@@H]21` [Dox, 1-dimethylamino-2,4-a,5,7,12-pentahydroxy-11-methyl-4,6-dioxo-1,4a,11,11a,12,12a-hexahydrotetracene-3-carboxamide], for which the median survival in data set [1] was 33.4 days. The “body weight between treatment groups” value with LOX-IMVI tumors (2 mg/ml Dox plus 5% sucrose vs 5% sucrose) is given as “no difference in body weight”. Besides, in the data set on LOX-IMVI tumors (2 mg/ml Dox via drinking water, LOX-IMVI and A375 xenograft experiments), the “lethality or weight loss” value is “No lethality or weight loss was observed”. Further, the “lower threshold for in vivo expression of the shRNA” value in the data set on LOX-IMVI tumors (pHUSH vector system, drinking water) is approximately 0.02 mg/mL. In the data set on BRAF, the “Dox IC50 for suppression of BRAF protein levels” value was “approximately 5 ng/ml”.

B1: Luciferase control shRNA: shRNA targeting the luciferase coding region (SEQ ID NO:9 / 15) in pHUSH (nucleic acid)
sense: GATCCCCCTTACGCTGAGTACTTCGATTCAAGAGATCGAAGTACTCAGCGTAAGTTTTTTGGAAA
antisense: AGCTTTTCCAAAAAACTTACGCTGAGTACTTCGATCTCTTGAATCGAAGTACTCAGCGTAAGGGG
Regarding B1, the “influence on tumor growth in vivo (tumor volume)” value in data set [2] was “does not influence tumor growth in vivo”. The tumor growth entry with LOX-IMVI tumors was “did not affect tumor growth kinetics”; in the data set with LOX-IMVI tumors (listed as control shRNA directed against Luciferase), “continued to increase in size”.

B2: codon optimized TetR: TetR coding region codon optimized for mammalian expression (SEQ ID NO:1) (nucleic acid)
DNA: ATGTCCAGACTGGATAAGTCCAAGGTGATTAATTCCGCTCTGGAACTCCTGAACGAGGTCGGCATCGAGGGACTGACCACACGGAAGCTGGCTCAGAAACTCGGCGTCGAACAGCCTACCCTCTACTGGCATGTCAAAAATAAGAGAGCCCTCCTGGACGCCCTGGCTATCGAGATGCTGGACAGACACCACACCCACTTCTGCCCCCTGGAAGGCGAATCCTGGCAGGATTTCCTCCGGAACAACGCTAAAAGCTTTAGATGCGCCCTCCTCAGCCATAGAGACGGAGCTAAAGTGCACCTGGGAACCCGGCCTACAGAAAAACAGTACGAGACACTGGAAAACCAGCTCGCTTTCCTCTGCCAACAAGGCTTTAGCCTGGAAAACGCCCTCTACGCTCTCAGCGCTGTCGGCCATTTTACACTGGGCTGCGTGCTCGAGGACCAGGAGCACCAAGTGGCTAAAGAGAGCGGGAAACCCCTACCACCGATAGCATGCCCCCCCTGCTGAGACAAGCCATTGAGCTCTTTGATCATCAGGGAGCTGAACCCGCCTTCCTCTTTGGACTCGAACTCATTATTTGCGGACTCGAGAAGCAACTGAAATGCGAAAGCGGAAGCGCCTACTCCGGCTCCAGAGAATTTCGGTCCTACTAG
modifications: Codon-optomized TetR
For B2, the “expression of the TetR protein” value in the data set with TetR protein is on record as “significantly increased expression of the TetR protein”.

B3: H1-shRNA-p53-1: H1 promoter N19 shRNA converted from the p53-1 miRNA (nucleic acid)
DNA: GATCCCCAGTACGTGCACATAACAGACTTTCAAGAGAAGTCTGTTGTGCACGTACTTTTTTTGGAAA
Regarding B3, the “knockdown compared to CMV-miR” value in data set [3] is listed as “slight increase in knockdown”.

B4: GFP control shRNA: EGFP shRNA (SEQ ID NO:17/18) control hairpin in pHUSH (nucleic acid)
sense: GATCCCCAGATCCGCCACAACATCGATTCAAGAGATCGATGTTGTGGCGGATCTTGTTTTTTGGAAA
antisense: AGCTTTTCCAAAAAACAAGATCCGCCACAACATCGATCTCTTGAATCGATGTTGTGGCGGATCTGGG
Take B4: in the data set with A375 tumors, the tumor growth entry is reported as “no discernable effect on tumor growth; also recorded: did not affect tumor growth kinetics”.
